One assay concerns the target T1, 5-HT3 receptor (Rattus norvegicus, UniProt P35563).
T1 construct: from tissue; host or cells: whole anesthetized rat (in vivo); endogenous receptor
T1 sequence (P35563 24-483): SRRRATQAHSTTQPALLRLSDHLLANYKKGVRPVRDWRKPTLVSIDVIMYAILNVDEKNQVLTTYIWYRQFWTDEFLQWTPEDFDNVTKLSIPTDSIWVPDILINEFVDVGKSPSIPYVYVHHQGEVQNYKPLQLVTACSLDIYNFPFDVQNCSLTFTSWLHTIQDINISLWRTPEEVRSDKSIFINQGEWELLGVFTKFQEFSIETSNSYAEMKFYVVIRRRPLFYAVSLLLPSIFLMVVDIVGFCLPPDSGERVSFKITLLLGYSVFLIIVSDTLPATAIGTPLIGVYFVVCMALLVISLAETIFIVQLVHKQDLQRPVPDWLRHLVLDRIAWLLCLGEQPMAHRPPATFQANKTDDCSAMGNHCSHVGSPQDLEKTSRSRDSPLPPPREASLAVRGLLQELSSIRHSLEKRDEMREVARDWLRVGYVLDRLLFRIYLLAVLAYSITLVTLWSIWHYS
The assay is described as follows: 5-HT3 receptor antagonist activity: inhibition of 2-Me-5-HT-induced reduction in heart rate in anesthetized rats. The class given is in vivo. The conditions noted are these: iv (jugular vein) 5 minutes before 2-Me-5-HT 0.1 mg/kg, read-out: IC50 (the source's name). The protocol: For the purpose of studying a receptor selectivity of the present compounds, the 5-HT3 receptor antagonist activity was tested in the following manner. Rats were anesthetized with urethane and heart rate was recorded through femoral artery. The 5-HT3 selective agonist, 2-methyl-5-hydroxytryptamine (2-Me-5-HT) was administered at 0.1 mg/kg through carotid arteries and transient reduction in heart rate was recorded. The test. compounds were administered through jugular vein at 5 minutes before the administration of 2-Me-5-HT, inhibitory rate of reduction in heart rate by the administration of 2-Me-5-HT was calculated and IC50 value was calculated from the inhibitory rate.

A further assay addresses T2, 5-HT4 receptors (Rattus norvegicus, UniProt Q62758).
T2 construct: from tissue; host or cells: rat oesophageal tunica muscularis mucosae
Nature of the assay: Relaxation of carbachol-contracted rat oesophageal tunica muscularis mucosae. The class given is cell-based. The protocol: The agonistic activity of oxazabicyclo derivatives and Mosapride on 5-HT4 receptors was determined by the procedure mentioned in Naunyn-Schmiedeberg's Arch Pharmacol (1991) 343:439-446.
The rat oesophageal tunica muscularis mucosae were suspended in organ both containing Krebs-Henseleit solution aerated with a mixed gas (95% O2, 5% CO2) and contracted with carbachol (1×10^-6 M). After the contraction was stabilized, the cumulative administration of the compounds was performed to determine the relaxation of the rat oesophagus pre-contracted with carbachol. The concentration (ED50) to cause 50% relaxation of the carbachol-induced contraction was measured. The result is expressed in terms of -log ED50 and shown in the following table in which higher numerical value indicates higher activity.

The target of the next assay is 5-HT4 receptor (Cavia porcellus, UniProt O70528). The assay is described as follows: Increase in contraction height of electrically stimulated longitudinal muscle of isolated guinea pig ileum (LMMP). It is filed as cell-based. Details: key: +: indicates the increase in the contraction height; -: indicates no effect. From the text: Ileum was excised from guinea pigs to prepare longitudinal muscle samples with approximately 2 cm length. The sample was suspended in Krebs-Henseleit liquid bath supplied with a mixed gas (95% O2, 5% CO2) and subjected to electrical stimulation (1 msec, 0.1 Hz) to record contraction force isometrically. The test compounds were. dissolved in distilled water or DMSO and tested at a concentration of 10^-7 M (but 10^-6 M for Compound 11). The results are shown by the presence or absence of the increase in the contraction height by electrical stimulation before administration of the compound, wherein the symbol "+" indicates the increase in the contraction height, while "-" indicates no effect.
5-HT4 receptor, sequence (O70528 whole entry): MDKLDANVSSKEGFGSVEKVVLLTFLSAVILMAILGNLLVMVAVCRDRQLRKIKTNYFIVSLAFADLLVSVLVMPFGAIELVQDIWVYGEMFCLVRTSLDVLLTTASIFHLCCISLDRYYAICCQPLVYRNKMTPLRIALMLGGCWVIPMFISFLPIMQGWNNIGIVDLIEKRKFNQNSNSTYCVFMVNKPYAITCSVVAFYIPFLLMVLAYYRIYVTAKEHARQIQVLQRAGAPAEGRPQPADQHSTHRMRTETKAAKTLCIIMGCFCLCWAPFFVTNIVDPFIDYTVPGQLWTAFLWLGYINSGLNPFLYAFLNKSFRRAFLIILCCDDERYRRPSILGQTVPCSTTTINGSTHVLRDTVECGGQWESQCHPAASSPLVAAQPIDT
Whether or not the action of the above compounds is that via activation of 5-HT4 receptors was investigated using as 5-HT4 receptor antagonist, SDZ 205-557 (2-methoxy-4-amino-5-chlorobenzoic acid 2-(diethylamino)ethyl ester) described in Naunyn-Schmiedeberg's Arch Pharmacol (1992) 345:387-393. Thus, the investigation as to whether SDZ 205-557 can antagonize the increase in the contraction height of the above compounds using the longitudinal muscle preparation of the isolated guinea pig ileum can reveal that such increase in the contraction height is the action via activation of 5-HT4 receptors.

Structures can show the parent of a compound that is named as a salt. Where two headings read alike, the source gives them in different places.

T2 sequence (Q62758 whole entry): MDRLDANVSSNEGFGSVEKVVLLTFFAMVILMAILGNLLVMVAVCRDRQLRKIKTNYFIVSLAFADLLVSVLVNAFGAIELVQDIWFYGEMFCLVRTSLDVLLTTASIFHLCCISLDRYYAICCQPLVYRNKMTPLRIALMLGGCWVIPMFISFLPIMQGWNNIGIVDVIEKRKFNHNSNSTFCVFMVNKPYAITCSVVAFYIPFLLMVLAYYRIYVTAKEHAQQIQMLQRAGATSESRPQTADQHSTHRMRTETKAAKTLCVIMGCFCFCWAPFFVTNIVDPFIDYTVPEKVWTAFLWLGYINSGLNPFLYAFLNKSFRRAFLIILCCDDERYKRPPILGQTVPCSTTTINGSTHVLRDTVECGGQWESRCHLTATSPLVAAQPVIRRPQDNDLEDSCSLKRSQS

For `CCCCN1[C@@H]2COC[C@H]1C[C@@H](NC(=O)c1nn(C(C)CC)c3ccccc13)C2` (relative stereo) [Example 8], at 5-HT3 receptor, the ED50 is 0.0297 mg/kg. On 5-HT4 receptors, the EC50 was 0.631 µM. The “LMMP: presence or absence of the increase in the contraction height by electrical stimulation” value on 5-HT4 receptor (test concentration 10^-7 M) is “+”. For the compound `CCCCN1[C@@H]2COC[C@H]1C[C@@H](NC(=O)c1nn(C(C)CCC)c3ccccc13)C2` (relative stereo) [Example 9, N-[endo-9-(n-Butyl)-3-oxa-9-azabicyclo[3.3.1]non-7-yl]-1-(2-pentyl)-indazole-3-carboxamide], the EC50 at 5-HT4 receptors is 0.776 µM. Take `CC#CC(C)n1nc(C(=O)N[C@H]2C[C@H]3COC[C@@H](C2)N3CCCC)c2ccccc21` (relative stereo) [Example 17, N-[endo-9-(n-Butyl)-3-oxa-9-azabicyclo[3.3.1]non-7-yl]-1-(1-methyl-2-butynyl)indazole-3-carboxamide]: the EC50 on 5-HT4 receptors was 2.24 µM. As to `CN1[C@@H]2COC[C@H]1C[C@@H](NC(=O)c1nn(C)c3ccccc13)C2` [Comparative Example 1, N-[endo-9-Methyl-3-oxa-9-azabicyclo[3.3.1]non-7-yl]-1-methylindazole-3-carboxamide, reference compound], the EC50 on 5-HT4 receptors (ED50 = concentration to cause 50% relaxation of contraction by carbachol (1×10^-6 M), cumulative administration, read-out: Activity (-log ED50) (converted)) was 115 µM. The “LMMP: presence or absence of the increase in the contraction height by electrical stimulation” value at 5-HT4 receptor (test concentration 10^-7 M) was “-”. As to `CC(C)n1nc(C(=O)N[C@H]2C[C@H]3COC[C@@H](C2)N3C)c2ccccc21` [Comparative Example 2, N-[endo-9-Methyl-3-oxa-9-azabicyclo[3.3.1]non-7-yl]-1-isopropylindazole-3-carboxamide, reference compound], the ED50 on 5-HT3 receptor turned out to be 0.00032 mg/kg. For the same compound, the EC50 on 5-HT4 receptors is 1.51 µM. Also, at 5-HT4 receptor (test concentration 10^-7 M), the “LMMP: presence or absence of the increase in the contraction height by electrical stimulation” value is “+”. The compound `CCCCN1[C@@H]2COC[C@H]1C[C@@H](NC(=O)c1nn(CCC)c3ccccc13)C2` [Example 1, N-[endo-9-(n-Butyl)-3-oxa-9-azabicyclo[3.3.1]non-7-yl]-1-(n-propyl)indazole-3-carboxamide] had an EC50 at 5-HT4 receptors of 3.8 µM. With `CCCN1[C@@H]2COC[C@H]1C[C@@H](NC(=O)c1nn(C(C)C)c3ccccc13)C2` [Example 2, N-[endo-9-(n-Propyl)-3-oxa-9-azabicyclo[3.3.1]non-7-yl]-1-isopropyl-indazole-3-carboxamide], on 5-HT3 receptor, the ED50 was found to be 0.0089 mg/kg. The EC50 at 5-HT4 receptors is 2.88 µM. Further, on 5-HT4 receptor (test concentration 10^-7 M), the “LMMP: presence or absence of the increase in the contraction height by electrical stimulation” value is “+”.

`CCCN1[C@@H]2COC[C@H]1C[C@@H](NC(=O)c1nn(C(CC)CC)c3ccccc13)C2` [Example 3, N-[endo-9-(n-Propyl)-3-oxa-9-azabicyclo[3.3.1]non-7-yl]-1-(3-pentyl)-indazole-3-carboxamide] had an EC50 on 5-HT4 receptors of 1.66 µM.

In turn, `CCCCN1[C@@H]2COC[C@H]1C[C@@H](NC(=O)c1nn(CC)c3ccccc13)C2` [Example 4, N-[endo-9-(n-Butyl)-3-oxa-9-azabicyclo[3.3.1]non-7-yl]-1-ethylindazole-3-carboxamide] showed an EC50 on 5-HT4 receptors of 10.2 µM.

In turn, `CCCCN1[C@@H]2COC[C@H]1C[C@@H](NC(=O)c1nn(CCCC)c3ccccc13)C2` [Example 6, N-[endo-9-(n-Butyl)-3-oxa-9-azabicyclo[3.3.1]non-7-yl]-1-(n-butyl)-indazole-3-carboxamide] gave an EC50 at 5-HT4 receptors of 4.68 µM.

On to `CCCCN1[C@@H]2COC[C@H]1C[C@@H](NC(=O)c1nn(CC(C)C)c3ccccc13)C2` [Example 7, N-[endo-9-(n-Butyl)-3-oxa-9-azabicyclo[3.3.1]non-7-yl]-1-isobutyl-indazole-3-carboxamide], for which the EC50 at 5-HT4 receptors was found to be 5.25 µM. Same read-out and setting: the figure for `CCCCN1[C@@H]2COC[C@H]1C[C@@H](NC(=O)c1nn(C(CC)CC)c3ccccc13)C2` [Example 10, N-[endo-9-(n-Butyl)-3-oxa-9-azabicyclo[3.3.1.]non-7-yl]-1-(3-pentyl)indazole-3-carboxamide] is 0.851 µM. Regarding `C=CCn1nc(C(=O)N[C@H]2C[C@H]3COC[C@@H](C2)N3CCCC)c2ccccc21` [Example 11, N-[endo-9-(n-Butyl)-3-oxa-9-azabicyclo[3.3.1]non-7-yl]-1-allyl-indazole-3-carboxamide], the EC50 at 5-HT4 receptors is 3.55 µM. On 5-HT4 receptor (test concentration 10^-6 M (Compound 11)), the “LMMP: presence or absence of the increase in the contraction height by electrical stimulation” value is “+”. As for `CCCCN1[C@@H]2COC[C@H]1C[C@@H](NC(=O)c1nn(CC=C(C)C)c3ccccc13)C2` [Example 12, N-[endo-9-(n-Butyl)-3-oxa-9-azabicyclo[3.3.1]non-7-yl]-1-(3-methyl-2-butenyl)indazole-3-carboxamide], at 5-HT4 receptors, the EC50 was 6.76 µM.

`CCCCN1[C@@H]2COC[C@H]1C[C@@H](NC(=O)c1nn(CC3CC3)c3ccccc13)C2` [Example 13, N-[endo-9-(n-Butyl)-3-oxa-9-azabicyclo[3.3.1]non-7-yl]-1-(cyclopropylmethyl)indazole-3-carboxamide] had an EC50 at 5-HT4 receptors of 2.09 µM. At 5-HT4 receptor (test concentration 10^-7 M), the “LMMP: presence or absence of the increase in the contraction height by electrical stimulation” value is “+”.

On to `CCCCCN1[C@@H]2COC[C@H]1C[C@@H](NC(=O)c1nn(C(C)C)c3ccccc13)C2` [Example 14, N-[endo-9-(n-Pentyl)-3-oxa-9-azabicyclo[^3.3.1]non-7-yl]-1-isopropylindazole-3-carboxamide], for which the ED50 at 5-HT3 receptor worked out at 0.0281 mg/kg. The EC50 at 5-HT4 receptors was 1.48 µM. Further, the “LMMP: presence or absence of the increase in the contraction height by electrical stimulation” value at 5-HT4 receptor (test concentration 10^-7 M) was “+”. On to `CCCCCN1[C@@H]2COC[C@H]1C[C@@H](NC(=O)c1nn(C(CC)CC)c3ccccc13)C2` [Example 15, N-[endo-9-(n-Pentyl)-3-oxa-9-azabicyclo[3.3.1]non-7-yl]-1-(3-pentyl)-indazole-3-carboxamide], for which the EC50 at 5-HT4 receptors was 0.813 µM.

Regarding `CCCCN1[C@@H]2COC[C@H]1C[C@@H](NC(=O)c1nn(C3CCCC3)c3ccccc13)C2` [Example 16, N-[endo-9-(n-Butyl)-3-oxa-9-azabicyclo[3.3.1]non-7-yl]-1-cyclopentyl-indazole-3-carboxamide], the EC50 on 5-HT4 receptors was 7.76 µM. On to `CCCCN1[C@@H]2COC[C@H]1C[C@@H](NC(=O)c1nn([C@@H](C)CC)c3ccccc13)C2` [Example 18, (S)-(+)-N-[endo-9-(n-Butyl)-3-oxa-9-azabicyclo[3.3.1]non-7-yl]-1-(sec-butyl)indazole-3-carboxamide], for which the ED50 at 5-HT3 receptor amounted to 0.0183 mg/kg. For the same compound, at 5-HT4 receptors, the EC50 was 0.437 µM. Consider `CCCCN1[C@@H]2COC[C@H]1C[C@@H](NC(=O)c1nn([C@H](C)CC)c3ccccc13)C2` [Example 19, (R)-(-)-N-[endo-9-(n-Butyl)-3-oxa-9-azabicyclo[3.3.1]non-7-yl]-1-(sec-butyl)indazole-3-carboxamide], for which the EC50 on 5-HT4 receptors is 1.05 µM.

As to `CCCCN1[C@@H]2COC[C@H]1C[C@@H](NC(=O)c1nn(C(C)C)c3ccc(O)cc13)C2` [Example 26, N-[endo-9-(n-Butyl)-3-oxa-9-azabicyclo[3.3.1]non-7-yl]-5-hydroxy-1-isopropylindazole-3-carboxamide (hydrochloride)], on 5-HT4 receptors, the EC50 is 10.5 µM. The compound `CCCCN1[C@@H]2COC[C@H]1C[C@@H](NC(=O)c1nn(C(C)C)c3c(O)cccc13)C2` [Example 27, N-[endo-9-(n-Butyl)-3-oxa-9-azabicyclo[3.3.1]non-7-yl]-7-hydroxy-1-isopropylindazole-3-carboxamide (hydrochloride)] gave an EC50 at 5-HT4 receptors of 15.8 µM.

Consider `CC(C)n1nc(C(=O)N[C@H]2C[C@H]3COC[C@@H](C2)N3)c2ccccc21` [Example 28, N-[endo-3-Oxa-9-azabicyclo[3.3.1]non-7-yl]-1-isopropylindazole-3-carboxamide (hydrochloride)], for which the EC50 on 5-HT4 receptors was 0.468 µM.

Source of the values: patent publication US5684003A, “5-HT4 receptor agonists” (Nisshin Flour Milling Co., Ltd., priority 1994, dated 1997).
